Data published in the NIST ThermoML archive (doi:10.1021/acs.jced.8b00058).
“And” between values parts separate entries of the source, which are not always exact repeats. Equal entries are not always repeated. ± gives the expanded uncertainty stated by the source.

Assays:
[1] = mn = molality of the nth substance listed, in mol/kg; conditions: 100 kPa, Liquid; for speed of sound: Frequency=3 MHz, Single path-length method; for mass density: Vibrating tube method
[2] = 100 kPa, Liquid, Frequency=3 MHz, Single path-length method

OCCO [1,2-ethanediol] + O
[1]
Conditions | mass density, m1 = 0.09889 [kg/m3] | mass density, m1 = 0.1989 [kg/m3] | mass density, m1 = 0.2997 [kg/m3] | mass density, m1 = 0.3948 [kg/m3] | mass density, m1 = 0.5016 [kg/m3] | speed of sound, m1 = 0.09889 [m/s] | speed of sound, m1 = 0.1989 [m/s] | speed of sound, m1 = 0.2997 [m/s] | speed of sound, m1 = 0.3948 [m/s] | speed of sound, m1 = 0.5016 [m/s]
293.15 K | 999.059 ± 1 | 999.884 ± 1 | 1000.68 ± 1 | 1001.4 ± 1 | 1002.2 ± 1 | 1485.5 ± 2 | 1488.3 ± 2 | 1491.2 ± 2 | 1493.9 ± 2 | 1496.8 ± 2
298.15 K | 997.877 ± 1 | 998.688 ± 1 | 999.473 ± 1 | 1000.18 ± 1 | 1000.96 ± 1 | 1498.9 ± 2 | 1501.7 ± 2 | 1504.3 ± 2 | 1506.6 ± 2 | 1509.1 ± 2
303.15 K | 996.471 ± 1 | 997.262 ± 1 | 998.033 ± 1 | 998.733 ± 1 | 999.48 ± 1 | 1511.1 ± 2 | 1513.8 ± 2 | 1516.2 ± 2 | 1518.7 ± 2 | 1521.2 ± 2
308.15 K | 994.84 ± 1 | 995.613 ± 1 | 996.362 ± 1 | 997.038 ± 1 | 997.764 ± 1 | 1521.8 ± 2 | 1524 ± 2 | 1526.2 ± 2 | 1528.3 ± 2 | 1530.3 ± 2

Nc1ccccc1 [aniline] + O
[1]
Conditions | mass density, 293.15 K | mass density, 298.15 K | mass density, 303.15 K | mass density, 308.15 K | speed of sound, 293.15 K [m/s] | speed of sound, 298.15 K [m/s] | speed of sound, 303.15 K [m/s] | speed of sound, 308.15 K
m1 = 0.1 | 998.568 ± 1 kg/m3 and 998.57 ± 1 kg/m3 | 997.42 ± 1 kg/m3 and 997.421 ± 1 kg/m3 | 995.98 ± 1 kg/m3 and 995.983 ± 1 kg/m3 | 994.35 ± 1 kg/m3 and 994.351 ± 1 kg/m3 | 1483.3 ± 2 | 1497.2 ± 2 | 1509.5 ± 2 | 1520.5 ± 2 m/s
m1 = 0.2 | 998.97 ± 1 kg/m3 and 998.972 ± 1 kg/m3 | 997.81 ± 1 kg/m3 and 997.813 ± 1 kg/m3 | 996.33 ± 1 kg/m3 and 996.326 ± 1 kg/m3 | 994.68 ± 1 kg/m3 and 994.684 ± 1 kg/m3 | 1485 ± 2 | 1498.7 ± 2 | 1510.8 ± 2 | 1521.9 ± 2 m/s and 1520.5 ± 2 m/s
m1 = 0.3 | 999.36 ± 1 kg/m3 and 999.363 ± 1 kg/m3 | 998.21 ± 1 kg/m3 and 998.208 ± 1 kg/m3 | 996.705 ± 1 kg/m3 and 996.71 ± 1 kg/m3 | 995.035 ± 1 kg/m3 and 995.04 ± 1 kg/m3 | 1486.8 ± 2 | 1500 ± 2 | 1512.1 ± 2 | 1521.9 ± 2 m/s and 1523.3 ± 2 m/s
m1 = 0.4 | 999.783 ± 1 kg/m3 and 999.78 ± 1 kg/m3 | 998.592 ± 1 kg/m3 and 998.59 ± 1 kg/m3 | 997.079 ± 1 kg/m3 and 997.08 ± 1 kg/m3 | 995.385 ± 1 kg/m3 and 995.39 ± 1 kg/m3 | 1488.6 ± 2 | 1502 ± 2 | 1513.5 ± 2 | 1523.6 ± 2 m/s and 1524.7 ± 2 m/s

OCCOCCO [diethylene glycol] + O
[1]
Conditions | mass density, m1 = 0.09849 [kg/m3] | mass density, m1 = 0.1974 [kg/m3] | mass density, m1 = 0.295 [kg/m3] | mass density, m1 = 0.4101 [kg/m3] | mass density, m1 = 0.5006 [kg/m3] | speed of sound, m1 = 0.09849 [m/s] | speed of sound, m1 = 0.1974 [m/s] | speed of sound, m1 = 0.295 [m/s] | speed of sound, m1 = 0.4101 [m/s] | speed of sound, m1 = 0.5006 [m/s]
293.15 K | 999.647 ± 1 | 1001.03 ± 1 | 1002.36 ± 1 | 1003.86 ± 1 | 1004.99 ± 1 | 1487.7 ± 2 | 1493.1 ± 2 | 1498.1 ± 2 | 1504.1 ± 2 | 1508.3 ± 2
298.15 K | 998.458 ± 1 | 999.78 ± 1 | 1001.03 ± 1 | 1002.49 ± 1 | 1003.59 ± 1 | 1501.2 ± 2 | 1506 ± 2 | 1510.8 ± 2 | 1516.2 ± 2 | 1520.3 ± 2
303.15 K | 997.071 ± 1 | 998.395 ± 1 | 999.643 ± 1 | 1001.05 ± 1 | 1002.15 ± 1 | 1513.1 ± 2 | 1517.6 ± 2 | 1522 ± 2 | 1526.9 ± 2 | 1530.6 ± 2
308.15 K | 995.44 ± 1 | 996.778 ± 1 | 998.046 ± 1 | 999.471 ± 1 | 1000.53 ± 1 | 1523.5 ± 2 | 1527.5 ± 2 | 1531.5 ± 2 | 1536.1 ± 2 | 1539.6 ± 2

OCCOCCOCCO [triethylene glycol] + O
[1]
Conditions | mass density, m1 = 0.0965 [kg/m3] | mass density, m1 = 0.2002 [kg/m3] | mass density, m1 = 0.292 [kg/m3] | mass density, m1 = 0.3986 [kg/m3] | mass density, m1 = 0.4988 [kg/m3] | speed of sound, m1 = 0.0965 [m/s] | speed of sound, m1 = 0.2002 [m/s] | speed of sound, m1 = 0.292 [m/s] | speed of sound, m1 = 0.3986 [m/s] | speed of sound, m1 = 0.4988 [m/s]
293.15 K | 1000.31 ± 1 | 1002.46 ± 1 | 1004.29 ± 1 | 1006.36 ± 1 | 1008.22 ± 1 | 1489.9 ± 2 | 1498 ± 2 | 1504.8 ± 2 | 1513.1 ± 2 | 1520.5 ± 2
298.15 K | 999.126 ± 1 | 1001.27 ± 1 | 1003.11 ± 1 | 1005.14 ± 1 | 1006.99 ± 1 | 1503.5 ± 2 | 1511 ± 2 | 1517.6 ± 2 | 1525.4 ± 2 | 1532.2 ± 2
303.15 K | 997.728 ± 1 | 999.858 ± 1 | 1001.67 ± 1 | 1003.69 ± 1 | 1005.54 ± 1 | 1514.8 ± 2 | 1521.8 ± 2 | 1528 ± 2 | 1535.1 ± 2 | 1541.7 ± 2
308.15 K | 996.095 ± 1 | 998.216 ± 1 | 1000.01 ± 1 | 1002.02 ± 1 | 1003.85 ± 1 | 1525.1 ± 2 | 1531.3 ± 2 | 1536.9 ± 2 | 1543.3 ± 2 | 1549.4 ± 2

O [water]
[2]
Conditions | speed of sound [m/s]
293.15 K | 1481.1 ± 2
298.15 K | 1495.8 ± 2
308.15 K | 1519.1 ± 2
